This note sets out measurements from PMC7728754, “MRI-based molecular imaging of epicardium-derived stromal cells (EpiSC) by peptide-mediated active targeting” (Scientific Reports, 2020).

“Also recorded” adds a separate entry of the source.

For data set [1], the system named is primary human CD14+ monocytes. Description: Flow cytometry binding of EP9 to primary human monocytes. It counts as cell-based. The conditions noted are these: 1.9 µg EP9 in 600 µl cell suspension, up to 45 min, 37 °C, n = 4 (Fig. S3). The method, then:
Blood was withdrawn from healthy human volunteers by venous puncture and 10 ml of whole blood were mixed with 10 ml of PBS and gently laid on top of Histopaque-1077 (Sigma-Aldrich Chemie GmbH). After density centrifugation, the PBMC layer was diluted 1:1 with PBS and a centrifugation step was performed. The cell pellet was subjected to erythrocyte lysis using hypotonic buffer for 10 min at 4 °C. After centrifugation, the cells were resuspended in 8.5 ml DMEM. The cell suspension (600 µl) was incubated with 1.9 µg of EP9 for 45 min, at 37 °C. After 5, 15 and 45 min, samples were transferred into ice cold MACS buffer to stop the reaction and centrifuged for 5 min at 500 × g. Cells were washed with MACS buffer, resuspended in CD14-PE/Cy7 (PE/Cy7 anti-human CD14, Clone 63D3, BioLegend, San Diego, USA) antibody solution and incubated for 30 min at 4 °C. Flow cytometric analysis was performed after two washing steps and suspension in MACS buffer with DAPI (1 µg/ml) using a BD FACS Canto II.
In general terms: Flow cytometry measures light scatter and fluorescence of single cells or particles in a stream.

Data set [2] concerns cultured EpiSCs. Description: Impact of storage on EP9/EP9PFC targeting efficacy. It counts as cell-based, rat. The conditions noted are these: stored in phosphate buffer at 4 °C for 24 h, then 30 min at 37 °C on cultured EpiSCs, flow cytometry, n = 3. The method, then:
EP9 and ^EP9PFCs were stored in phosphate buffer at 4 °C for 6 h and 24 h. Subsequently EP9 and ^EP9PFCs were incubated on cultured EpiSCs for 30 min at 37 °C. Cells were washed twice with MACS buffer and then analyzed by flow cytometry.

The next data set deals with EpiSCs. Description: Surface plasmon resonance, EpiSCs over immobilized EP9. It counts as binding, rat. The conditions noted are these: SPR, 25 °C, PBS. The method, then:
(§1) To analyse the interaction kinetics between peptide EP9 and EpiSCs, we used a BIAcore X100 system equipped with a CM5 sensor chips (GE Healthcare GmbH, Solingen, Germany). EP9 peptide was immobilized to the surface of the CM5 chip (600 µg/ml; 30 µl/min) using a thiol coupling chemistry (GE Healthcare GmbH). Presence of a free SH group at the C-terminal of EP9 peptide enabled us to efficiently immobilize it through a thiol coupling procedure. Afterward, EpiSCs and THP-1 monocytes (ATCC: TIB-202; 10,000 cells/µl) were injected over the sensor chip to monitor the association between immobilized EP9 peptide and the cells. After injection of the cells, dissociation phase was monitored by introduction of buffer for a period of 300 s. In another experimental strategy, increasing numbers of EpiSCs (200, 400 and 800 × 10^3) were flushed over the immobilized peptide EP9 with a flow rate of 30 µl/min and dissociation was measured for an identical period of time. Finally, to block the EP9 binding sites, EpiSCs were pre-incubated for 30 min with 5 µg of EP9 before injection into the BIAcore system and subjected to the same procedure as described above. All SPR experiments were carried out at 25 °C in PBS.
Background: Surface plasmon resonance follows binding to a sensor surface in real time, without labels.

The subject of the next data set is EpiSC and THP-1 cells. Description: Cytotoxicity by DAPI flow cytometry. It counts as cell-based. The conditions noted are these: 200 µl of cells + 5 µl EP9PFCs or 1.9 µg EP9, up to 120 min, 37 °C, n = 3. The method, then:
EpiSC and THP-1 cells were incubated with EP9 peptide or ^EP9PFCs (200 µl of cells + 5 µl ^EP9PFCs or 1.9 µg EP9) over a period of 120 min at 37 °C. Samples were withdrawn after 0 min, 15 min, 30 min, 60 min and 120 min and analyzed by flow cytometry. Cells were stained with DAPI (1 µg/ml) to label dead cells.

Data set [3] deals with cultured EpiSCs. Description: Flow cytometry binding of FAM-labelled EPs to cultured EpiSCs. The conditions noted are these: 5 µg/ml FAM-labelled peptide, up to 120 min, 37 °C, n = 5. It is filed as cell-based, rat. Here is the method:
EpiSCs were detached from the cell culture flask with PBS-EDTA (5 mM) and resuspended in DMEM at a concentration of 0.5 × 10^6 cells/ml. Cell suspensions were incubated with 5 µg/ml of EP1, EP2, EP3, EP7 and EP9 for up to 120 min at 37 °C. After 10, 20, 40, 80 and 120 min, samples were transferred into tubes containing ice-cold MACS buffer (PBS, 2% FCS, 1 mM EDTA) to stop the reaction. Cells were centrifuged for 5 min at 500 × g and 4 °C, washed twice and finally suspended in MACS buffer with DAPI (4′,6-Diamidino-2-phenylindole dihydrochloride; 1 µg/ml) to label dead cells. Flow cytometric analysis was performed on a BD FACS Canto II (BD Biosciences, Heidelberg, Germany).

A further data set concerns THP-1 monocytes. The data set is described as follows: Surface plasmon resonance, THP-1 monocytes over immobilized EP9. To be noted: SPR, CM5 chip, 30 µl/min, 25 °C, PBS, negative control cells. It counts as binding, human. The method, then:
as §1

As for KLMLPRP [EP9], in data set [1], the “Binding to primary monocytes” value is on record as “not detectable”. In the data set with cultured EpiSCs [2], the “Cellular labelling of EpiSCs after storage” value is “severely reduced”. The “Association of EpiSCs to immobilized peptide” value in the data set with EpiSCs (CM5 chip, thiol coupling, 30 µl/min) is on record as “rapidly associated”. This substance returned a Dissociation rate with EpiSCs (EpiSCs over thiol-immobilized EP9, 30 µl/min) of 0.005 s⁻¹. In addition, in the data set on EpiSC and THP-1 cells, the Acute cytotoxic effects entry is “did not find evidence for acute cytotoxic effects”. In addition, the “Binding to cultured EpiSCs” value in the data set with cultured EpiSCs [3] is “strong binding; also recorded: best binding properties”. Moreover, in the data set on THP-1 monocytes, the “Association of THP-1 monocytes to immobilized peptide” value is “only minor association”.
On to QSHALMA [EP7], for which the “Binding to cultured EpiSCs” value with cultured EpiSCs [3] was “strong binding”.
As for ATKTIAP [EP2], in the data set with cultured EpiSCs [3], the “Binding to cultured EpiSCs” value was “strong binding”.
In the case of SEPIVPL [EP1], the “Binding to cultured EpiSCs” value in the data set on cultured EpiSCs [3] is reported as “strong binding”.
Consider THVYRDE [EP3], for which the “Binding to cultured EpiSCs” value in the data set on cultured EpiSCs [3] is listed as “strong binding”.
